Assay results published in publication PMC11062922 (Nature Chemical Biology, 2023).

Assays:
ARAF = test: Kinobeads competition binding: ARAF; set-up: species or system human; settings: target ARAF
FYN = molecular target: T1, FYN (Homo sapiens, UniProt P06241); test: Kinobeads competition binding: FYN; settings: target FYN;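 note: share of total target engagement due to this protein at one drug concentration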
T1 construct: endogenous in cells
Excerpt: Supplement 41589_2023_1459_MOESM4_ESM.xlsx, sheet "CATDS matrix" | column: FYN

GSK3A = molecular target: T2, GSK3A (Homo sapiens, UniProt P49840); test: Kinobeads competition binding: GSK3A; settings: target GSK3A
T2 construct: endogenous in cells

ICK = test: Kinobeads competition binding: ICK; set-up: species or system human; settings: target ICK
LATS1 = molecular target: T3, LATS1 (Homo sapiens, UniProt O95835); test: Kinobeads competition binding: LATS1; settings: target LATS1
T3 construct: endogenous in cells
T3 sequence (O95835 1-1130): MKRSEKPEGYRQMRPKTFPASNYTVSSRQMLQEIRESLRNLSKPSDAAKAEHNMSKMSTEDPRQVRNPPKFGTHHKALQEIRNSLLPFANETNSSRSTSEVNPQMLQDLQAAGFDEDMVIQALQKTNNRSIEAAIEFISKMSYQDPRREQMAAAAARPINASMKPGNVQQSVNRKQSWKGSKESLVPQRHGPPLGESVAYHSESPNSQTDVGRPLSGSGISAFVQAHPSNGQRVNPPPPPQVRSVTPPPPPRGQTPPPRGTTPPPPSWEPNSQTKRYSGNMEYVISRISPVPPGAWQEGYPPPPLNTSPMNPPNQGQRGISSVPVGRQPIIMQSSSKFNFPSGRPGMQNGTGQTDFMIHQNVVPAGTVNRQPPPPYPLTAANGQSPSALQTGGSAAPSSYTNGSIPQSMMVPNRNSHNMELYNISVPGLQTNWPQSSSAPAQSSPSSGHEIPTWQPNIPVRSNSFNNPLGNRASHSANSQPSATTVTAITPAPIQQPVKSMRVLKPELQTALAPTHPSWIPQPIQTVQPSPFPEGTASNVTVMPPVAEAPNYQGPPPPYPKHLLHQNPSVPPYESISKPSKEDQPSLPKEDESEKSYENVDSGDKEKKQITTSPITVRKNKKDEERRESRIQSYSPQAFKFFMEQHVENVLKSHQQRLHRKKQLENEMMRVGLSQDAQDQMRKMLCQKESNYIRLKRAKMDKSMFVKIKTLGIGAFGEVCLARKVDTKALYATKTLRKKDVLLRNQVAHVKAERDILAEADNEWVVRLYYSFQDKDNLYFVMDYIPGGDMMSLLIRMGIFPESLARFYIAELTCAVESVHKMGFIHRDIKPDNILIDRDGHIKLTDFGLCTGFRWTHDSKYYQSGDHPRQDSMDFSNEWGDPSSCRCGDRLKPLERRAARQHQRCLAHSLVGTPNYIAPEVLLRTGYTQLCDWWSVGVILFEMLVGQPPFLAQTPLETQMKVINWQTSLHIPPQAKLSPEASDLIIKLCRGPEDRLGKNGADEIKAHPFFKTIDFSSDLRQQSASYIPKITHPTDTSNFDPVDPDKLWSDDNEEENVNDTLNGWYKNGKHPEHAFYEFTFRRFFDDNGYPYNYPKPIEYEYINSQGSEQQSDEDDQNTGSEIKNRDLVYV
Excerpt: Supplement 41589_2023_1459_MOESM4_ESM.xlsx, sheet "CATDS matrix" | column: LATS1

MAP2K4 = test: Kinobeads competition binding: MAP2K4; set-up: species or system human; settings: target MAP2K4
MTOR = test: Kinobeads competition binding: MTOR; set-up: species or system human; settings: target MTOR
MYLK3 = test: Kinobeads competition binding: MYLK3; set-up: species or system human; settings: target MYLK3;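 note: share of all-target engagement taken by this protein at its own Kdapp concentration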
PKMYT1 = test: Kinobeads competition binding: PKMYT1; set-up: species or system human; settings: target PKMYT1

T2 sequence (P49840 whole entry): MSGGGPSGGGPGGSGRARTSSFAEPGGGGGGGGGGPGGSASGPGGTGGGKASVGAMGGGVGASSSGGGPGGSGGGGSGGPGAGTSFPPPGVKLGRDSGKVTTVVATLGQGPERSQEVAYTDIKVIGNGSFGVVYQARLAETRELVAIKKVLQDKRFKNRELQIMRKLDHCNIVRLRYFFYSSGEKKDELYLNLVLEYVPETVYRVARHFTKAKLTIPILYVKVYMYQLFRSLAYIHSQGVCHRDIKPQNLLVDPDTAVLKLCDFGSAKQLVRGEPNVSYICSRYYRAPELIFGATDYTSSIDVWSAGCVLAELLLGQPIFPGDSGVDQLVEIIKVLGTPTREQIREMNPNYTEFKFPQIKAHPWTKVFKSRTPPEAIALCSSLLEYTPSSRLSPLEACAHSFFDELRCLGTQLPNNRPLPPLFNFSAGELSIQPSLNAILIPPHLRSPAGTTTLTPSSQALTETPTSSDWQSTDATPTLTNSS
T1 sequence (P06241 whole entry): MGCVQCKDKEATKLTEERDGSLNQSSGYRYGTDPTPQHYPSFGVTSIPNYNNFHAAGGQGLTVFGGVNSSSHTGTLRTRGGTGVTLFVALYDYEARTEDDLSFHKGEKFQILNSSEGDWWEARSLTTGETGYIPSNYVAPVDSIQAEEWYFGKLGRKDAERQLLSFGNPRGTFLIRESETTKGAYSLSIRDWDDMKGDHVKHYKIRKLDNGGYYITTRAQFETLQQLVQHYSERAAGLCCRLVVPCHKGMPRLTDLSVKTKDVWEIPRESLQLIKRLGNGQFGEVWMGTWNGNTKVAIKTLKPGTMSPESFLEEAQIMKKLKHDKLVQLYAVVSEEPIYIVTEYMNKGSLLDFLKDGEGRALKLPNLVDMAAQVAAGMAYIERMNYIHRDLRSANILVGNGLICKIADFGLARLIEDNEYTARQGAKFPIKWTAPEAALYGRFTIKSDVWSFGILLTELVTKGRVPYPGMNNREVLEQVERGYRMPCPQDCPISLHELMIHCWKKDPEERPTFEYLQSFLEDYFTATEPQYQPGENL

With `Nc1ncnc2[nH]c(-c3ccccc3)nc12` [AH5015_KCGS] as the compound, how does the CATDS (ARAF) read?
Its CATDS is 0.

What about the CATDS (FYN) of the same compound?
The CATDS was 0.

What about the CATDS (GSK3A) of the same compound?
Its CATDS is 0.1015.

And the CATDS (ICK)?
The CATDS was 0.

And the CATDS (LATS1)?
Its CATDS is 0.

What about the CATDS (MAP2K4) of the same compound?
Its CATDS is 0.

What about the CATDS (MTOR) of the same compound?
The CATDS was 0.

What about the CATDS (MYLK3) of the same compound?
Its CATDS is 0.

And the CATDS (PKMYT1)?
Its CATDS is 0.

For `CCN1CCN(Cc2ccc(Nc3ncc(F)c(-c4cc(F)c5nc(C)n(C(C)C)c5c4)n3)nc2)CC1` [Abemaciclib], which CATDS (ARAF) is on record?
The CATDS was 0.

What about the CATDS (FYN) of the same compound?
Its CATDS is 0.

And the CATDS (GSK3A)?
The CATDS was 0.08929.

And the CATDS (ICK)?
Its CATDS is 0.

What about the CATDS (LATS1) of the same compound?
Its CATDS is 0.

What about the CATDS (MAP2K4) of the same compound?
The CATDS was 0.

What about the CATDS (MTOR) of the same compound?
The CATDS was 0.

What about the CATDS (MYLK3) of the same compound?
Its CATDS is 0.

And the CATDS (PKMYT1)?
The CATDS was 0.

With `CN(C)C/C=C/C(=O)Nc1cc2c(Nc3ccc(F)c(Cl)c3)ncnc2cc1O[C@H]1CCOC1` [Afatinib] as the compound, how does the CATDS (ARAF) read?
The CATDS was 0.

And the CATDS (FYN)?
The CATDS was 0.

And the CATDS (GSK3A)?
The CATDS was 0.

And the CATDS (LATS1)?
Its CATDS is 0.

With `CCc1cc2c(cc1N1CCC(N3CCOCC3)CC1)C(C)(C)c1[nH]c3cc(C#N)ccc3c1C2=O` [Alectinib] as the compound, how does the CATDS (ARAF) read?
Its CATDS is 0.

What about the CATDS (FYN) of the same compound?
The CATDS was 0.

And the CATDS (GSK3A)?
Its CATDS is 0.

And the CATDS (ICK)?
The CATDS was 0.

And the CATDS (LATS1)?
Its CATDS is 0.

What about the CATDS (MAP2K4) of the same compound?
The CATDS was 0.

What about the CATDS (MTOR) of the same compound?
Its CATDS is 0.

And the CATDS (MYLK3)?
The CATDS was 0.

What about the CATDS (PKMYT1) of the same compound?
Its CATDS is 0.

Which CATDS (ARAF) does the source give for `N#CC1(c2ccc(NC(=O)c3cccnc3NCc3ccncc3)cc2)CCCC1` [Apatinib] here?
The CATDS was 0.

What about the CATDS (FYN) of the same compound?
Its CATDS is 0.

And the CATDS (GSK3A)?
Its CATDS is 0.

And the CATDS (ICK)?
The CATDS was 0.

And the CATDS (LATS1)?
Its CATDS is 0.

And the CATDS (MAP2K4)?
The CATDS was 0.

And the CATDS (MTOR)?
Its CATDS is 0.

And the CATDS (MYLK3)?
Its CATDS is 0.

And the CATDS (PKMYT1)?
Its CATDS is 0.
